Patent US9073940B2, “Tricyclic pyrazol amine derivatives” (MERCK SERONO SA, priority 2009, dated 2015)
pIC50: −log10 of the molar value.

test system: 4 PI3K isoforms (Human recombinant GST-PI3K); assay: PI3K scintillation proximity assay, best IC50 obtained with the four isoforms (alpha, beta, delta, gamma); assay type: biochemical; conditions: best IC50 obtained with the four isoforms of PI3K; read-out: Best potency measured on the 4 PI3K isoforms

SMILES | pIC50
NCCCC1c2c(C(=O)N3CCOCC3)nn(-c3ccccc3)c2-c2ccccc2S1(=O)=O (stereo not drawn) [Example 140, 3-[3-(Morpholin-4-ylcarbonyl)-5,5-dioxido-1-phenyl-1,4-dihydrothiochromeno[4,3-c]pyrazol-4-yl]propan-1-amine] | 5.34
O=C(CC1CCOCC1)N1CCC[C@H](n2nc(C(=O)N3CCOCC3)c3c2-c2ccccc2S(=O)(=O)C3)C1 [Example 398] | 6.46
O=C(c1nn([C@@H]2CCCN(CCN3CCOCC3)C2)c2c1CS(=O)(=O)c1c(Cl)cccc1-2)N1CCOCC1 [Example 387] | 5.28
COc1ccc2c(c1)S(=O)(=O)Cc1c(C(=O)N3CCOCC3)nn(-c3ccccc3)c1-2 [Example 5, 7-methoxy-3-(morpholin-4-ylcarbonyl)-1-phenyl-1,4-dihydrothiochromeno[4,3-c]pyrazole 5,5-dioxide] | 6.46
O=C(c1nn(-c2ccccc2)c2c1CS(=O)(=O)c1sccc1-2)N1CCOCC1 [Example 192, 3-(Morpholin-4-ylcarbonyl)-1-phenyl-1,4-dihydrothieno[3′,2′:5,6]thiopyrano[4,3-c]pyrazole 5,5-dioxide] | 5.77
O=C(c1nn(C2CCCN(CCn3cccn3)C2)c2c1CS(=O)(=O)c1c(F)cccc1-2)N1CCOCC1 (stereo not drawn) [Example 406, 6-Fluoro-3-(morpholin-4-ylcarbonyl)-1-{1-[2-(1H-pyrazol-1-yl)ethyl]piperidin-3-yl}-1,4-dihydrothiochromeno[4,3-c]pyrazole 5,5-dioxide] | 7.10
O=C(c1nn(CC2CCCCC2)c2c1CS(=O)(=O)c1ccccc1-2)N1CCOCC1 [Example 51, 1-(cyclohexylmethyl)-3-(morpholin-4-ylcarbonyl)-1,4-dihydrothiochromeno[4,3-c]pyrazole 5,5-dioxide] | 6.29
O=C(c1nn(-c2ccccc2)c2c1CS(=O)(=O)c1c(-c3ccccc3)cccc1-2)N1CCOCC1 [Example 323] | 4.75
O=C(c1nn(C2CCCNC2)c2c1CS(=O)(=O)c1ccccc1-2)N1CCOCC1 (stereo not drawn) [Example 75] | 5.52
CS(=O)(=O)Nc1cccc(-n2nc(C(=O)N3CCOCC3)c3c2-c2ccccc2S(=O)(=O)C3)c1 [Example 180, N-{3-[3-(Morpholin-4-ylcarbonyl)-5,5-dioxidothiochromeno[4,3-c]pyrazol-1 (4H)-yl]phenyl)methanesulfonamide] | 5.75
Cn1nc(C(=O)N2CCOCC2)c2c1-c1cc([N+](=O)[O-])ccc1S(=O)(=O)C2 [Example 35, 1-methyl-3-(morpholin-4-ylcarbonyl)-8-nitro-1,4-dihydrothiochromeno[4,3-c]pyrazole 5,5-dioxide] | 5.56
O=C(c1nn(C2CCCCC2)c2c1CS(=O)(=O)c1cc(Br)ccc1-2)N1CCOCC1 [Example 128, 7-Bromo-1-cyclohexyl-3-(morpholin-4-ylcarbonyl)-1,4-dihydrothiochromeno[4,3-c]pyrazole 5,5-dioxide] | 6.16
NCCN1CCC[C@H](n2nc(C(=O)N3CCOCC3)c3c2-c2ccccc2S(=O)(=O)C3)C1 (single isomer, unassigned) [Example 452, 2-{3-[3-(morpholin-4-ylcarbonyl)-5,5-dioxidothiochromeno[4,3-c]pyrazol-1(4H)-yl]piperidin-1-yl}ethanamine] | 7.14
O=C(c1nn(-c2ccccc2)c2c1NS(=O)(=O)c1ccccc1-2)N1CCOCC1 [Example 489, 3-(Morpholin-4-ylcarbonyl)-1-phenyl-1,4-dihydropyrazolo[4,3-c][1,2]benzothiazine 5,5-dioxide] | 5.26
O=C(c1nn(C2CCOC2)c2c1CS(=O)(=O)c1c(F)cccc1-2)N1CCOCC1 (stereo not drawn) [Example 365, 6-Fluoro-3-(morpholin-4-ylcarbonyl)-1-(tetrahydrofuran-3-yl)-1,4-dihydrothiochromeno[4,3-c]pyrazole 5,5-dioxide] | 6.45
O=C(c1nn(-c2ccccc2)c2c1CS(=O)(=O)c1ccc(CN3CCOCC3)cc1-2)N1CCOCC1 [Example 162, 3-(Morpholin-4-ylcarbonyl)-8-(morpholin-4-ylmethyl)-1-phenyl-1,4-dihydrothiochromeno[4,3-c]pyrazole 5,5-dioxide] | 5.79

Other lines, results leading:

pIC50 | SMILES
5.01 | CCCCNc1ccc2c(c1)S(=O)(=O)Cc1c(C(=O)N3CCOCC3)nn(-c3ccccc3)c1-2 [Example 326]
5.25 | O=C(c1nn([C@H]2CCCN(CCn3ccnc3)C2)c2c1CS(=O)(=O)c1ccccc1-2)N1CCOCC1 (single isomer, unassigned) [Example 412, 1-{1-[2-(1H-imidazol-1-yl)ethyl]piperidin-3-yl}-3-(morpholin-4-ylcarbonyl)-1,4-dihydrothiochromeno[4,3-c]pyrazole 5,5-dioxide]
5.40 | O=C(c1nn(-c2ccccc2Cl)c2c1CS(=O)(=O)c1ccccc1-2)N1CCOCC1 [Example 22, 1-(2-chlorophenyl)-3-(morpholin-4-ylcarbonyl)-1,4-dihydrothiochromeno[4,3-c]pyrazole 5,5-dioxide]
5.73 | Cc1ccc2c(c1)S(=O)(=O)Cc1c(C(=O)N3CCOCC3)nn(-c3ccccc3)c1-2 [Example 139, 7-Methyl-3-(morpholin-4-ylcarbonyl)-1-phenyl-1,4-dihydrothiochromeno[4,3-c]pyrazole 5,5-dioxide]
5.82 | Cc1ccc2c(c1)-c1c(c(C(=O)N3CCOCC3)nn1-c1ccccc1)CS2(=O)=O [Example 129, 8-Methyl-3-(morpholin-4-ylcarbonyl)-1-phenyl-1,4-dihydrothiochromeno[4,3-c]pyrazole 5,5-dioxide]
5.92 | O=C(c1nn(Cc2ccccc2)c2c1CS(=O)(=O)c1ccccc1-2)N1CCOCC1 [Example 40, 1-benzyl-3-(morpholin-4-ylcarbonyl)-1,4-dihydrothiochromeno[4,3-c]pyrazole 5,5-dioxide]
5.97 | Cc1ccccc1-c1cccc(-n2nc(C(=O)N3CCOCC3)c3c2-c2ccccc2S(=O)(=O)C3)c1 [Example 160, 1-(2′-Methylbiphenyl-3-yl)-3-(morpholin-4-ylcarbonyl)-1,4-dihydrothiochromeno[4,3-c]pyrazole 5,5-dioxide]
5.98 | Cn1nc(C(=O)N2CCOCC2)c2c1-c1cc(Br)ccc1S(=O)(=O)C2 [Example 63]
6.08 | O=C(c1nn(-c2cccc(-c3ccoc3)c2)c2c1CS(=O)(=O)c1ccccc1-2)N1CCOCC1 [Example 197, 1-[3-(3-Furyl)phenyl]-3-(morpholin-4-ylcarbonyl)-1,4-dihydrothiochromeno[4,3-c]pyrazole 5,5-dioxide]
6.27 | O=C(c1nn(C2CCCN(Cc3ccccc3)C2)c2c1CS(=O)(=O)c1ccccc1-2)N1CCOCC1 (stereo not drawn) [Example 174, 1-(1-Benzylpiperidin-3-yl)-3-(morpholin-4-ylcarbonyl)-1,4-dihydrothiochromeno[4,3-c]pyrazole 5,5-dioxide]
6.35 | O=C(c1nn([C@@H]2CCCN(CCn3ccnc3)C2)c2c1CS(=O)(=O)c1ccccc1-2)N1CCOCC1 (single isomer, unassigned) [Example 411, 1-{1-[2-(1H-imidazol-1-yl)ethyl]piperidin-3-yl}-3-(morpholin-4-ylcarbonyl)-1,4-dihydrothiochromeno[4,3-c]pyrazole 5,5-dioxide]
6.55 | O=C(c1nn(-c2cccc(-c3cccnc3)c2)c2c1CS(=O)(=O)c1ccccc1-2)N1CCOCC1 [Example 198, 3-(Morpholin-4-ylcarbonyl)-1-(3-pyridin-3-ylphenyl)-1,4-dihydrothiochromeno[4,3-c]pyrazole 5,5-dioxide]
6.83 | O=C(c1nn(C2CCCN(CCC(F)(F)F)C2)c2c1CS(=O)(=O)c1ccccc1-2)N1CCOCC1 (stereo not drawn) [Example 222, 3-(Morpholin-4-ylcarbonyl)-1-[1-(3,3,3-trifluoropropyl)piperidin-3-yl]-1,4-dihydrothiochromeno[4,3-c]pyrazole 5,5-dioxide]
6.89 | COCCN1CCC[C@H](n2nc(C(=O)N3CCOCC3)c3c2-c2cccc(OC)c2S(=O)(=O)C3)C1 (single isomer, unassigned) [Example 428, 6-methoxy-1-[1-(2-methoxyethyl)piperidin-3-yl]-3-(morpholin-4-ylcarbonyl)-1,4-dihydrothiochromeno[4,3-c]pyrazole 5,5-dioxide]
7.44 | O=C(c1nn(C2CCCN(CCN3CC(F)(F)C3)C2)c2c1CS(=O)(=O)c1ccccc1-2)N1CCOCC1 (stereo not drawn) [Example 273, 1-{1-[2-(3,3-Difluoroazetidin-1-yl)ethyl]piperidin-3-yl}-3-(morpholin-4-ylcarbonyl)-1,4-dihydrothiochromeno[4,3-c]pyrazole 5,5-dioxide]
7.66 | O=C(c1nn(C2CCCN(CCC3CCOCC3)C2)c2c1CS(=O)(=O)c1c(F)cccc1-2)N1CCOCC1 (stereo not drawn) [Example 280, 6-Fluoro-3-(morpholin-4-ylcarbonyl)-1-{1-[2-(tetrahydro-2H-pyran-4-yl)ethyl]piperidin-3-yl)-1,4-dihydrothiochromeno[4,3-c]pyrazole 5,5-dioxide]
7.72 | COc1ccc2c(c1)S(=O)(=O)Cc1c(C(=O)N3CCOCC3)nn([C@H]3CCCN(CCN4CCC(F)CC4)C3)c1-2 (single isomer, unassigned) [Example 384, 1-{1-[2-(4-fluoropiperidin-1-yl)ethyl]piperidin-3-yl}-7-methoxy-3-(morpholin-4-ylcarbonyl)-1,4-dihydrothiochromeno[4,3-c]pyrazole 5,5-dioxide]
7.89 | O=C(c1nn([C@H]2CCCN(C3CCOCC3)C2)c2c1CS(=O)(=O)c1c(F)cccc1-2)N1CCOCC1 (stereo in doubt) [Example 427, 6-fluoro-3-(morpholin-4-ylcarbonyl)-1-[1-(tetrahydro-2H-pyran-4-yl)piperidin-3-yl]-1,4-dihydrothiochromeno[4,3-c]pyrazole 5,5-dioxide]

same assay, conditions: inhibition at 20 μM

SMILES | Best potency measured on the 4 PI3K isoforms, % inh @20 μM
CC1(C)c2c(C(=O)N3CCOCC3)nn(-c3ccccc3)c2-c2ccccc2S1(=O)=O [Example 60, 4,4-dimethyl-3-(morpholin-4-ylcarbonyl)-1-phenyl-1,4-dihydrothiochromeno[4,3-c]pyrazole 5,5-dioxide] | 52% in @20 μM
O=C(Nc1cccc2c1S(=O)(=O)Cc1c(C(=O)N3CCOCC3)nn(-c3ccccc3)c1-2)c1ccccc1 [Example 318] | 10% inh @20 μM
